Test results taken from US11771659B2, “Treating disease and promoting weight loss by inhibiting the TMA/FMO3/TMAO pathway” (The Cleveland Clinic Foundation, priority 2017, dated 2023).

How the values were obtained:
[1] = tested on: G protein-coupled receptor trace amine-associated receptor 5 (TAAR5); details: Li et al., 2013; cited from earlier work
[2] = tested on: male leptin deficient ob/ob mice; test: TMA lyase inhibition in leptin deficient ob/ob mice (Con vs Con+IMC); type: in vivo; details: 0.06% IMC in control diet, 16 weeks
Text: 6-week-old male leptin deficient ob/ob mice were maintained on either control diet (Con) or control diet supplemented with 0.06% TMA lyase inhibitor iodomethyl choline (Con+IMC) for 16 weeks. Results are shown in FIG. 7(F-J): F) Plasma TMA and TMAO levels (uM); G) Body weight (g); H) Food consumption normalized to body weight (g of diet consumed per day per g of body weight); I) Glucose tolerance measured after 12 weeks on diet; and J) Mean oxygen consumption (VO2; ml/kg/hr) measured after 5 weeks on diet; n=6 mice/group.
FIG. 8A-F represents data from HFD model and G-K the Ob/Ob model. FIG. 8A,G. Principal co-ordinate analysis (PCoA) plot of microbiota profiles built from weighted Unifrac distances. Each point represents a single sample from a single mouse. Positions of points in space display dissimilarities in the microbiota, with points further from one another being more dissimilar. FIG. 8B,H. Barplot of cecal microbiota at the phylum level. Each bar represents an individual mouse and each color an individual phyla. FIG. 8C. Relative abundance of Firmicutes, Bacteroidetes and the Firmicutes to Baceteroidetes ratio for mice on HFD with or without IMC. […] Points extending beyond the lines are outliers defined as values greater or less than 1.5 times the interquartile range. […] FIG. 8E,J. Spearman's correlation between Akkermansia muciniphila and TMA/body weight. […]

[3] = tested on: male C57BL6/J mice on 60% high fat diet; test: TMA lyase inhibition in high fat diet-fed mice (HFD vs HFD+IMC); type: in vivo; details: 0.06% IMC in 60% high fat diet, 6-week-old male C57BL6/J mice
Method: 6-week-old male C57BL6/J mice were maintained on either 60% high fat diet (HFD) or HFD supplemented with 0.06% TMA lyase inhibitor iodomethyl choline (HFD+IMC) for weeks. Results are shown in FIG. 7 (A-E): A) Plasma TMA and TMAO levels (uM); B) Body weight (g); C) Food consumption normalized to body weight (g of diet consumed per day per g of body weight); D) Glucose tolerance measured after 12 weeks on diet; and E) Plasma insulin measured following an overnight fast (Fasted) or 4 hours postprandially (Fed); n=4-5 mice/group.
To determine the role of TMA and TMAO on diet-induced obesity, cohorts of 6-week-old male C57BL6/J mice fed HFD and HFD+IMC were supplemented with either 100 mM TMA in the drinking water (K-M) or 0.3% w/w TMAO in the diet (N-P). […] FIGS. 7K-P specifically show: K) Plasma TMA and TMAO levels (uM) after 6 weeks on diet and TMA supplementation; L) Body weight (g) over 12 weeks; M) Glucose tolerance measured after 10 weeks on diet and TMA supplementation; N) Plasma TMA and TMAO levels (uM) after 12 weeks on diet and TMAO supplementation; O) Body weight (g) over 20 weeks; and P) Glucose tolerance measured after 12 weeks on diet and TMAO supplementation. n=8-10 mice per diet group for all studies unless otherwise indicated. […] Statistical significance determined using student's t-test or two-way ANOVA where appropriate. […]

Row | Structure (SMILES) | activation/recognition of TAAR5 [1] | obesity driven by leptin deficiency [2] | obesity driven by high fat diet [3]
1 | CN(C)C [TMA, trimethylamine] | known to activate |  | 
2 | C[N+](C)(C)[O-] [TMAO, trimethylamine-N-oxide] | does not recognize |  | 
3 | C[N+](C)(CI)CCO [IMC, iodomethyl choline] |  | improves obesity | improves obesity
